Measured values: paper PMC12348844, “Anti-Trypanosoma cruzi Potential of New Pyrazole-Imidazoline Derivatives” (Molecules, 2025)
Like-named read-outs stand apart in the source and are kept apart here.

Legend:
[1] = tested on: T. cruzi cysteine protease; test: Cysteine protease activity in trypomastigote protein extract (Z-Phe-Arg-AMC); assay type: biochemical, Trypanosoma cruzi; details: 90 min, 37 °C, 33.3, 100 and 300 µM tested
Description: Total proteins from T. cruzi Dm28c-Luc were extracted using a lysis buffer [100 mM Tris-HCl pH 8.0, 150 mM NaCl, 10% glycerol, 0.5% Triton X-100]. The protein concentration was quantified using the Bradford assay, with bovine serum albumin (BSA) used to establish the standard curve. For the assessment of cysteine protease activity, 5 μg of the protein extract was incubated in an acetate buffer [10 mM sodium acetate, pH 5.0], supplemented with 1 mM dithiothreitol (DTT) in a final volume of 100 μL. The reaction used a fluorogenic peptide substrate, N-benzoyloxycarbonyl-L-phenylalanyl-L-arginine 7-amino-4-methylcoumarin (Z-FR-AMC), at a concentration of 60 μM. Incubation was conducted at 37 °C for 90 min, with relative fluorescence changes measured using a SpectraMax M2e spectrophotometer (Molecular Devices, Sunnyvale, CA, USA). Inhibition assays were performed using three concentrations (33.3, 100, and 300 µM) of the promising candidate and trans-epoxysuccinyl-L-leucylamido(4-guanidino)butane (E-64), each analyzed separately. A control was included using a low DMSO concentration (≤1%). Enzymatic activity was expressed in µmol/min/mg of protein, with residual activity presented as a percentage.

[2] = tested on: T. cruzi Dm28c-Luc intracellular amastigotes; test: Anti-T. cruzi in vitro assay, intracellular amastigotes in Vero cells (luminescence); assay type: cell-based, Trypanosoma cruzi; details: for SI (selectivity index = CC50/IC50): CC50 Vero cells / IC50 intracellular amastigotes
Description: (§1) The genetically modified Trypanosoma cruzi, clone Dm28c (TcI), expressing luciferase (Dm28c-Luc), was kindly provided by Dr. Cristina Henriques from Oswaldo Cruz Institute—Fiocruz. The parasites were maintained using Vero cell cultures in RPMI 1640 medium enriched with 10% FBS. At 4 days post-infection (dpi), the trypomastigotes released into the culture supernatant were harvested, subjected to centrifugation at 800× g for 20 min at 4 °C, and quantified with a Neubauer chamber. The isolated trypomastigotes were subsequently used for phenotypic screening, drug efficacy assessments employing a 3D cardiac model, washout experiments to evaluate reversibility, drug combination studies, and enzymatic assays.
To evaluate the effect of pyrazole-imidazoline derivatives against intracellular amastigotes, Vero cells (1.5 × 10^4 cells/well) were cultured in a white 96-well plate with a clear bottom and subsequently infected with T. cruzi Dm28c-Luc at a 10:1 parasite-to-host cell ratio for 24 h. […] Parasite viability was measured by luminescence following the addition of luciferin (300 µg/mL). Background measurements (non-infected cultures incubated with luciferin, as well as luciferin-only controls) were performed to ensure the signal specifically originates from viable parasites. The IC50 and IC90 values, denoting the concentrations that achieve 50% and 90% reductions in viable parasites, respectively, were calculated using GraphPad Prism 8.2.1 software. Additionally, the selectivity index (SI) was calculated as the cytotoxic concentration (CC50) ratio in mammalian cells to the IC50 against T. cruzi, providing insight into the therapeutic window. Potency against intracellular amastigotes was evaluated using the formula 6—Log10 (IC50).

[3] = Cytotoxicity assay, Vero cells (CellTiter-Glo); assay type: cell-based; details: African green monkey, mean ± SD
Description: Vero cells, obtained from the Rio de Janeiro Cell Bank (BCRT code 0245) and maintained through weekly subculturing with a dissociation solution containing 0.25% trypsin-EDTA, initiated once the monolayer reached an 80–100% confluence. Following harvesting, the cells were washed and resuspended in RPMI 1640 medium enriched with 10% fetal bovine serum (FBS). Cultures were maintained at 37 °C in a 5% CO2-humidified incubator. These cultures were used for drug screening assays and for producing culture-derived trypomastigotes of T. cruzi.
Cytotoxicity assays were performed using Vero cells, which were seeded at a density of 1.5 × 10^4 cells per well in white 96-well plates with clear bottoms. Following a 24 h adhesion period, the cultures were incubated at 37 °C in a 5% CO2 atmosphere. […] After 72 h of incubation, cell viability was assessed by adding CellTiter-Glo reagent (Promega Corporation, Madison, WI, USA), which induces cell lysis and reacts with the released ATP to produce luminescence. The resulting luminescence was measured using a Glomax Multi-Detection plate reader (Promega Corporation, Madison, WI, USA). The half-maximal inhibitory concentration (CC50) for cell viability was then calculated using GraphPad Prism software version 8.2.1.

[4] = tested on: T. cruzi Dm28c-Luc trypomastigotes; test: Anti-T. cruzi in vitro assay, trypomastigotes (luminescence); assay type: cell-based; details: Trypanosoma cruzi, 24 h, mean ± SD
Description: as §1
Drug susceptibility assays were performed on T. cruzi Dm28c-Luc, a genetically engineered parasite expressing luciferase. The drug screening used both trypomastigotes and intracellular amastigotes. Trypomastigotes (1 × 10^6 parasites/well) were added to white 96-well plates with clear bottoms. […] The luminescence was measured using a Glomax Multi-Detection plate reader (Promega Corporation, Madison, WI, USA).

[5] = Trypanosoma cruzi, Vero, 72 h, Dm28c-Luc in Vero cells, mean ± SD, read-out: Intracellular Amastigotes IC50
[6] = Trypanosoma cruzi, Vero, intracellular amastigotes, 6 − Log10(IC50), read-out: pIC50 (potency) (converted)
[7] = Trypanosoma cruzi, 72 h, Dm28c-Luc in Vero cells, mean ± SD

For CC(C)C[C@H](NC(=O)[C@H]1O[C@@H]1C(=O)O)C(=O)NCCCCN=C(N)N (relative stereo) [E-64, trans-epoxysuccinyl-L-leucylamido(4-guanidino)butane, reference compound], the “inhibition of cysteine protease activity” value [1] was 92.81%.
With Nc1c(C2=NCCN2)cnn1-c1ccc(Cl)cc1Cl [1a, 5-amino-1-(2,4-dichlorophenyl)-4-(4,5-dihydro-1H-imidazol-2-yl)-1H-pyrazole] the “SI (selectivity index = CC50/IC50)” value [2] was greater than 12.2, the IC50 [2, 5] was 40.8 ± 3 µM and the IC50 [2, 6] was 75.9 µM. It also gave an IC90 [2, 7] greater than 100 µM, a CC50 at 72 h [3] greater than 500 µM and an IC50 [4] greater than 100 µM. For the same compound, the IC90 [4] was greater than 100 µM.
Nc1c(C2=NCCN2)cnn1-c1cccc(F)c1 [1b, 5-amino-1-(3-fluorophenyl)-4-(4,5-dihydro-1H-imidazol-2-yl)-1H-pyrazole] showed an IC50 [2, 5] greater than 100 µM, an IC50 [2, 6] greater than 100 µM and an IC90 [2, 7] greater than 100 µM. The CC50 at 72 h [3] was greater than 500 µM, the IC50 [4] was greater than 100 µM and the IC90 [4] was greater than 100 µM.
Compound Cc1ccc(-n2ncc(C3=NCCN3)c2N)cc1 [1c, 5-amino-1-(4-methylphenyl)-4-(4,5-dihydro-1H-imidazol-2-yl)-1H-pyrazole] has an IC50 [2, 5] greater than 100 µM, an IC50 [2, 6] greater than 100 µM and an IC90 [2, 7] greater than 100 µM. For the same compound, the CC50 at 72 h [3] was greater than 500 µM, the IC50 [4] was greater than 100 µM and the IC90 [4] was greater than 100 µM.
With Cc1ccc(-n2cc(C3=NCCN3)cn2)cc1 [1d, 1-(4-methylphenyl)-4-(4,5-dihydro-1H-imidazol-2-yl)-1H-pyrazole] the “SI (selectivity index = CC50/IC50)” value [2] was greater than 14.7, the IC50 [2, 5] was 33.9 ± 0.8 µM and the IC50 [2, 6] was 39.8 µM. It also gave an IC90 [2, 7] greater than 100 µM, a CC50 at 72 h [3] greater than 500 µM and an IC50 [4] greater than 100 µM. It also gave an IC90 [4] greater than 100 µM.
With Cc1ccc(-n2ncc(C3=NCCN3)c2N)cc1Cl [1e, 5-amino-1-(3-chloro-4-methylphenyl)-4-(4,5-dihydro-1H-imidazol-2-yl)-1H-pyrazole] the “SI (selectivity index = CC50/IC50)” value [2] was greater than 7.2, the IC50 [2, 5] was 68.9 ± 8.1 µM and the IC50 [2, 6] was 79.4 µM. It also gave an IC90 [2, 7] of 96.6 ± 0.2 µM, a CC50 at 72 h [3] greater than 500 µM and an IC50 [4] of 76.5 ± 10.3 µM. The IC90 [4] was greater than 100 µM.
In the case of Cc1cc(Cl)ccc1-n1ncc(C2=NCCN2)c1N [1f, 5-amino-1-(4-chloro-2-methylphenyl)-4-(4,5-dihydro-1H-imidazol-2-yl)-1H-pyrazole], the “SI (selectivity index = CC50/IC50)” value [2] is reported as greater than 6.5, the IC50 [2, 5] is reported as 76.1 ± 1.2 µM and the IC50 [2, 6] is reported as 79.4 µM. It also gave an IC90 [2, 7] greater than 100 µM, a CC50 at 72 h [3] greater than 500 µM and an IC50 [4] greater than 100 µM. For the same compound, the IC90 [4] was greater than 100 µM.
For Cc1cccc(-n2ncc(C3=NCCN3)c2N)c1 [1g, 5-amino-1-(3-methylphenyl)-4-(4,5-dihydro-1H-imidazol-2-yl)-1H-pyrazole], the “SI (selectivity index = CC50/IC50)” value [2] was greater than 6.3, the IC50 [2, 5] was 78.9 ± 2.2 µM and the IC50 [2, 6] was 79.4 µM. The IC90 [2, 7] was greater than 100 µM, the CC50 at 72 h [3] was greater than 500 µM and the IC50 [4] was greater than 100 µM. The IC90 [4] was greater than 100 µM.
With Cc1cccc(-n2cc(C3=NCCN3)cn2)c1 [1h, 1-(3-methylphenyl)-4-(4,5-dihydro-1H-imidazol-2-yl)-1H-pyrazole] the IC50 ([2]; 72 h, Dm28c-Luc in Vero cells, mean ± SD, read-out: Intracellular Amastigotes IC50) was 26.2 ± 3.4 µM, the “SI (selectivity index = CC50/IC50)” value [2] was greater than 19.1 and the IC50 [2, 5] was 26.1 ± 3.4 µM. For the same compound, the IC50 [2, 6] was 25.1 µM, the IC90 [2, 7] was 89.7 ± 7.4 µM and the CC50 at 72 h [3] was greater than 500 µM. For the same compound, the IC50 [4] was greater than 100 µM and the IC90 [4] was greater than 100 µM.
With Nc1c(C2=NCCN2)cnn1-c1cccc(C(F)(F)F)c1 [1i, 5-amino-1-(3-trifluoromethylphenyl)-4-(4,5-dihydro-1H-imidazol-2-yl)-1H-pyrazole] the “SI (selectivity index = CC50/IC50)” value [2] was greater than 9.6, the IC50 [2, 5] was 51.9 ± 3.6 µM and the IC50 [2, 6] was 63.1 µM. The IC90 [2, 7] was greater than 100 µM, the CC50 at 72 h [3] was greater than 500 µM and the IC50 [4] was greater than 100 µM. For the same compound, the IC90 [4] was greater than 100 µM.
With Nc1c(C2=NCCN2)cnn1-c1ccc(C(F)(F)F)cc1 [1j, 5-amino-1-(4-trifluoromethylphenyl)-4-(4,5-dihydro-1H-imidazol-2-yl)-1H-pyrazole] the “SI (selectivity index = CC50/IC50)” value [2] was greater than 5.6, the IC50 [2, 5] was 88.1 ± 0.2 µM and the IC50 [2, 6] was 100 µM. For the same compound, the IC90 [2, 7] was greater than 100 µM, the CC50 at 72 h [3] was greater than 500 µM and the IC50 [4] was greater than 100 µM. It also gave an IC90 [4] greater than 100 µM.
For Nc1c(C2=NCCN2)cnn1-c1cc(C(F)(F)F)cc(C(F)(F)F)c1 [1l, 5-amino-1-((3,5-ditrifluoromethyl)phenyl)-4-(4,5-dihydro-1H-imidazol-2-yl)-1H-pyrazole], the “SI (selectivity index = CC50/IC50)” value [2] was 16.7, the IC50 [2, 5] was 27.7 ± 2 µM and the IC50 [2, 6] was 31.6 µM. The IC90 [2, 7] was 80.1 ± 11.4 µM, the CC50 at 72 h [3] was 464 ± 15.2 µM and the IC50 [4] was greater than 100 µM. The IC90 [4] was greater than 100 µM.
With FC(F)(F)c1cc(-n2cc(C3=NCCN3)cn2)cc(C(F)(F)F)c1 [1m, 1-((3,5-ditrifluoromethyl)phenyl)-4-(4,5-dihydro-1H-imidazol-2-yl)-1H-pyrazole] the “SI (selectivity index = CC50/IC50)” value [2] was 3.5, the IC50 [2, 5] was 32.4 ± 5.9 µM and the IC50 [2, 6] was 31.6 µM. The IC90 [2, 7] was 80.7 ± 0.4 µM, the CC50 at 72 h [3] was 114 ± 11.9 µM and the IC50 [4] was greater than 100 µM. For the same compound, the IC90 [4] was greater than 100 µM.
